ChEMBL document CHEMBL1137226, “Structure modifications of 6-aminoquinolones with potent anti-HIV activity” (J Med Chem, 2004)
≈ marks a conversion by molar mass, not a printed value.

Tests used:
MT4 [1] = assay: Concentration required for protection of MT-4 cells from HIV-2 (ROD) induced cytopathogenicity in MTT assay; type: functional, cell-based; conditions: Homo sapiens
MT4 [2] = assay: Concentration of compound that reduces the viability of mock-infected MT-4 cells by 50%; type: functional; conditions: Homo sapiens
CCRF-CEM [3] = assay: Selectivity index towards HIV-1 (IIIB) in CEM cells; type: functional, Homo sapiens
[4] = Selectivity index towards HIV-1 (IIIB) in peripheral blood mononuclear cells; type: functional, Homo sapiens
CCRF-CEM [5] = assay: Selectivity index towards HIV-2 (ROD) in CEM cells; type: functional, Homo sapiens
MT4 [6] = assay: Selectivity index towards HIV-1 (IIIB) in MT-4 cells; type: functional, Homo sapiens
CCRF-CEM [7] = assay: Concentration of compound that reduces the viability of mock-infected CEM cells by 50%; type: functional; conditions: Homo sapiens
CCRF-CEM [8] = assay: Concentration of compound required for protection of CEM cells from HIV-2 (ROD) induced cytopathogenicity; type: functional, cell-based; conditions: Homo sapiens
MT4 [9] = assay: Selectivity index towards HIV-2 (ROD) in MT-4 cells; type: functional, Homo sapiens
MT4 [10] = assay: Maximum protection (%) of MT-4 cells from HIV-2 (ROD) induced cytopathogenicity; value ranges from 55-58%; type: functional, Homo sapiens
MT4 [11] = assay: Maximum protection (%) of MT-4 cells from HIV-1 (IIIB) induced cytopathogenicity; value ranges from 32-62%; type: functional, Homo sapiens
MT4 [12] = assay: Concentration required for protection of MT-4 cells from HIV-1 (IIIB) induced cytopathogenicity in MTT assay; type: functional, cell-based; conditions: Homo sapiens
[13] = Concentration of compound that reduces the viability of mock-infected peripheral blood mononuclear cells by 50%; type: functional; conditions: Homo sapiens
CCRF-CEM [14] = assay: Concentration of compound required for protection of CEM cells from HIV-1 (IIIB) induced cytopathogenicity; type: functional, cell-based; conditions: Homo sapiens
[15] = Concentration of compound required for reduction of p24 production in HIV-1 (IIIB) infected peripheral blood mononuclear cells; type: functional; conditions: Homo sapiens
MT4 [16] = assay: Maximum protection (%) of MT-4 cells from HIV-2 (ROD) induced cytopathogenicity; type: functional, Homo sapiens
MT4 [17] = assay: Maximum protection (%) of MT-4 cells from HIV-1 (IIIB) induced cytopathogenicity; value ranges from 8-9%; type: functional, Homo sapiens
MT4 [18] = assay: Maximum protection (%) of MT-4 cells from HIV-1 (IIIB) induced cytopathogenicity; value ranges from 9-24%; type: functional, Homo sapiens
MT4 [19] = assay: Maximum protection (%) of MT-4 cells from HIV-1 (IIIB) induced cytopathogenicity; value ranges from 34-37%; type: functional, Homo sapiens
MT4 [20] = assay: Maximum protection (%) of MT-4 cells from HIV-2 (ROD) induced cytopathogenicity; value ranges from 22-24%; type: functional, Homo sapiens
MT4 [21] = assay: Maximum protection (%) of MT-4 cells from HIV-1 (IIIB) induced cytopathogenicity; value ranges from 88-115%; type: functional, Homo sapiens
MT4 [22] = assay: Maximum protection (%) of MT-4 cells from HIV-1 (IIIB) induced cytopathogenicity; value ranges from 4-13%; type: functional, Homo sapiens
MT4 [23] = assay: Maximum protection (%) of MT-4 cells from HIV-1 (IIIB) induced cytopathogenicity; value ranges from 14-20%; type: functional, Homo sapiens
MT4 [24] = assay: Maximum protection (%) of MT-4 cells from HIV-1 (IIIB) induced cytopathogenicity; value ranges from 2-18%; type: functional, Homo sapiens
MT4 [25] = assay: Maximum protection (%) of MT-4 cells from HIV-2 (ROD) induced cytopathogenicity; value ranges from 40-43%; type: functional, Homo sapiens
MT4 [26] = assay: Maximum protection (%) of MT-4 cells from HIV-1 (IIIB) induced cytopathogenicity; value ranges from 53-59%; type: functional, Homo sapiens
MT4 [27] = assay: Maximum protection (%) of MT-4 cells from HIV-1 (IIIB) induced cytopathogenicity; value ranges from 16-36%; type: functional, Homo sapiens
MT4 [28] = assay: Maximum protection (%) of MT-4 cells from HIV-1 (IIIB) induced cytopathogenicity; value ranges from 5-6%; type: functional, Homo sapiens
MT4 [29] = assay: Maximum protection (%) of MT-4 cells from HIV-1 (IIIB) induced cytopathogenicity; value ranges from 16-49%; type: functional, Homo sapiens
MT4 [30] = assay: Maximum protection (%) of MT-4 cells from HIV-2 (ROD) induced cytopathogenicity; value ranges from 21-26%; type: functional, Homo sapiens
MT4 [31] = assay: Maximum protection (%) of MT-4 cells from HIV-2 (ROD) induced cytopathogenicity; value ranges from 27-33%; type: functional, Homo sapiens
MT4 [32] = assay: Maximum protection (%) of MT-4 cells from HIV-1 (IIIB) induced cytopathogenicity; value ranges from 32-39%; type: functional, Homo sapiens
MT4 [33] = assay: Maximum protection (%) of MT-4 cells from HIV-1 (IIIB) induced cytopathogenicity; value ranges from 10-27%; type: functional, Homo sapiens
MT4 [34] = assay: Maximum protection (%) of MT-4 cells from HIV-2 (ROD) induced cytopathogenicity; value ranges from 29-63%; type: functional, Homo sapiens
MT4 [35] = assay: Maximum protection (%) of MT-4 cells from HIV-1 (IIIB) induced cytopathogenicity; value ranges from 29-40%; type: functional, Homo sapiens
MT4 [36] = assay: Maximum protection (%) of MT-4 cells from HIV-1 (IIIB) induced cytopathogenicity; value ranges from 29-37%; type: functional, Homo sapiens
MT4 [37] = assay: Maximum protection (%) of MT-4 cells from HIV-2 (ROD) induced cytopathogenicity; value ranges from 40-42%; type: functional, Homo sapiens
MT4 [38] = assay: Maximum protection (%) of MT-4 cells from HIV-1 (IIIB) induced cytopathogenicity; value ranges from 3-8%; type: functional, Homo sapiens
MT4 [39] = assay: Maximum protection (%) of MT-4 cells from HIV-1 (IIIB) induced cytopathogenicity; value ranges from 5-9%; type: functional, Homo sapiens
MT4 [40] = assay: Maximum protection (%) of MT-4 cells from HIV-1 (IIIB) induced cytopathogenicity; value ranges from 2-14%; type: functional, Homo sapiens
MT4 [41] = assay: Maximum protection (%) of MT-4 cells from HIV-1 (IIIB) induced cytopathogenicity; value ranges from 11-24%; type: functional, Homo sapiens
MT4 [42] = assay: Maximum protection (%) of MT-4 cells from HIV-2 (ROD) induced cytopathogenicity; value ranges from 26-27%; type: functional, Homo sapiens

Compound	EC50 (MT4 [1]) [µg/mL]	CC50 (MT4 [2]) [µg/mL]	Selectivity index (MT4 [6])	Selectivity index (MT4 [9])	EC50 (MT4 [12]) [µg/mL]	Protection (MT4 [16]) [%]	further results
Nc1cc2c(=O)c(C(=O)O)cn(N3CCN(c4ccccn4)CC3)c2cc1N1CCN(c2ccccn2)CC1	19.2 (≈ 36.5 µM)	58.5 (≈ 111 µM)	<=3.4	3	≥ 17.4	–	Selectivity index (CCRF-CEM [3]): >11; Selectivity index [4]: >=19; Selectivity index (CCRF-CEM [5]): >8; CC50 (CCRF-CEM [7]): > 100 µg/mL; EC50 (CCRF-CEM [8]): 12 µg/mL (≈ 22.8 µM); Protection (MT4 [10]): <58%; Protection (MT4 [11]): <62%; CC50 [13]: ≥ 43.3 µg/mL; EC50 (CCRF-CEM [14]): 9.4 µg/mL (≈ 17.9 µM); EC50 [15]: 2.24 µg/mL (≈ 4.25 µM)
COc1ccccc1N1CCN(c2ccc3c(=O)c(C(=O)O)cn(C)c3c2)CC1	> 125	> 125	–	–	> 125	6	Protection (MT4 [17]): <9%
COc1ccccc1N1CCN(c2cc3c(cc2N)c(=O)c(C(=O)O)cn3C2CC2)CC1	> 10.3	10.3 (≈ 23.8 µM)	<1	<1	> 10.3	10	Protection (MT4 [18]): <24%
Nc1cc2c(=O)c(C(=O)O)cn(-c3ccc(F)cc3)c2cc1N1CCN(c2ccccn2)CC1	> 22	22 (≈ 47.9 µM)	<1	<1	> 22	–	Protection (MT4 [19]): <37%; Protection (MT4 [20]): <24%
Nc1cc2c(=O)c(C(=O)O)cn(C3CC3)c2cc1N1CCN(c2cccc(C(F)(F)F)c2)CC1	0.38 (≈ 0.804 µM)	3.83 (≈ 8.11 µM)	14.2	10.1	0.27 (≈ 0.571 µM)	71	Selectivity index (CCRF-CEM [3]): 11; Selectivity index [4]: 4; Selectivity index (CCRF-CEM [5]): 11; CC50 (CCRF-CEM [7]): 9 µg/mL (≈ 19 µM); Protection (MT4 [21]): <115%; EC50 (CCRF-CEM [8]): 0.8 µg/mL (≈ 1.69 µM); CC50 [13]: 4.63 µg/mL (≈ 9.8 µM); EC50 (CCRF-CEM [14]): 0.8 µg/mL (≈ 1.69 µM); EC50 [15]: 1.09 µg/mL (≈ 2.31 µM)
Cn1cc(C(=O)O)c(=O)c2cc([N+](=O)[O-])c(N3CCN(c4ccccn4)CC3)cc21	> 10.1	10.1 (≈ 24.6 µM)	<1	<1	> 10.1	5	Protection (MT4 [22]): <13%
Nc1cc2c(=O)c(C(=O)O)cn(-c3nc4ccccc4s3)c2cc1N1CCN(c2ccccn2)CC1	> 9.13	9.13 (≈ 18.3 µM)	<1	<1	> 9.13	21	Protection (MT4 [23]): <20%
Nc1cc2c(=O)c(C(=O)O)cn(N3CCN(c4ccccn4)CC3)c2cc1N1CCN(c2nc3ccccc3s2)CC1	> 0.24	0.24 (≈ 0.412 µM)	<1	<1	> 0.24	0	Protection (MT4 [24]): <18%
Cn1cc(C(=O)O)c(=O)c2ccc(N3CCN(c4ccccn4)CC3)cc21	> 65.5	65.5 (≈ 180 µM)	3.4	<1	19.2 (≈ 52.7 µM)	–	Selectivity index (CCRF-CEM [3]): >83; Selectivity index [4]: >73; Selectivity index (CCRF-CEM [5]): >56; CC50 (CCRF-CEM [7]): > 100 µg/mL; Protection (MT4 [25]): <43%; EC50 (CCRF-CEM [8]): 1.8 µg/mL (≈ 4.94 µM); Protection (MT4 [26]): <59%; CC50 [13]: > 100 µg/mL; EC50 (CCRF-CEM [14]): 1.2 µg/mL (≈ 3.29 µM); EC50 [15]: 1.37 µg/mL (≈ 3.76 µM)
Nc1cc2c(=O)c(C(=O)O)cn(C3CC3)c2cc1N1CCN(c2nc3ccccc3s2)CC1	> 0.07	0.07 (≈ 0.152 µM)	<1	<1	> 0.07	42	Protection (MT4 [27]): <36%
Nc1cc2c(=O)c(C(=O)O)cn(-c3ccc(-c4ccccc4)cc3)c2cc1N1CCN(c2nc3ccccc3s2)CC1	> 0.67	0.67 (≈ 1.17 µM)	<1	<1	> 0.67	1	Protection (MT4 [28]): <6%
COc1c(N2CCN(c3ccccn3)CC2)c(N)cc2c(=O)c(C(=O)O)cn(C)c12	> 4.28	4.28 (≈ 10.5 µM)	<1	<1	> 4.28	–	Protection (MT4 [29]): <49%; Protection (MT4 [30]): <26%
Cn1cc(C(=O)O)c(=O)c2cnc(N3CCN(c4ccccn4)CC3)cc21	> 67.4	67.4 (≈ 184 µM)	<1	<1	> 67.4	–	Protection (MT4 [31]): <33%; Protection (MT4 [32]): <39%
Cn1cc(C(=O)O)c(=O)c2cc(N)c(N3CCN(C4=Nc5ccccc5SC4)CC3)cc21	> 2.14	2.14 (≈ 4.76 µM)	<1	<1	> 2.14	15	Protection (MT4 [33]): <27%
Cc1nnc(N2CCN(c3cc4c(cc3N)c(=O)c(C(=O)O)cn4C)CC2)s1	≥ 10.3	> 125	<1	<=12.1	> 125	–	Protection (MT4 [34]): <63%; Protection (MT4 [35]): <40%
Cn1cc(C(=O)O)c(=O)c2cc(N)c(N3CCN(c4ccccn4)CC3)c(F)c21	> 6.08	6.08 (≈ 15.3 µM)	<1	<1	> 6.08	–	Protection (MT4 [36]): <37%; Protection (MT4 [37]): <42%
Cn1cc(C(=O)O)c(=O)c2cc([N+](=O)[O-])c(N3CCN(c4ccccn4)CC3)c(F)c21	> 29.6	29.6 (≈ 69.2 µM)	<1	<1	> 29.6	4	Protection (MT4 [38]): <8%
CC(=O)c1ccc(N2CCN(c3cc4c(cc3N)c(=O)c(C(=O)O)cn4C)CC2)cc1	> 0.15	0.15 (≈ 0.357 µM)	<1	<1	> 0.15	13	Protection (MT4 [39]): <9%
Nc1cc2c(=O)c(C(=O)O)cn(C3CCN(Cc4ccccc4)CC3)c2cc1N1CCN(c2ccccn2)CC1	> 2.36	2.36 (≈ 4.38 µM)	<1	<1	> 2.36	5	Protection (MT4 [40]): <14%
CCn1cc(C(=O)O)c(=O)c2cc(N)c(N3CCN(c4ccccn4)CC3)cc21	> 2.2	2.2 (≈ 5.59 µM)	<1	<1	> 2.2	–	Protection (MT4 [41]): <24%; Protection (MT4 [42]): <27%
